The values that follow come from patent US20220144847A1, “HETEROCYCLIC COMPOUND, PHARMACEUTICAL COMPOSITION COMPRISING SAME, PREPARATION METHOD THEREFOR, AND USE THEREOF” (Sichuan Kelun-Biotech Biopharmaceutical Co., Ltd., priority 2019, published 2022).

Where two headings read alike, the source gives them in different places.

One assay addresses RET-V804M (Homo sapiens, UniProt P07949, V804M). The assay can be described thus: RET inhibition experiment (HTRF KinEASE-TK kit), mutant RET-V804M. The class given is biochemical. To be noted: for IC50: read-out: The IC50 (nM) for inhibiting V804M. The procedure: Experimental method: According to the instructions of the HTRF KinEASE-TK kit (Cisbio), the compounds of the present disclosure were tested for their inhibitory effects on the activity of wild-type RET enzyme, mutant RET enzyme (RET-V804M, RET-V804L, and RET-M918T) and fusion-type RET enzyme (RET-CCDCl6). After pre-incubation of different RET enzymes and different concentrations of the test compounds at room temperature for 30 min, a substrate and adenosine triphosphate (ATP) were added to initiate the reaction. After incubation at room temperature for 40 min, TK antibody-cryptate and streptavidin-XL665 were added, and the test was performed after incubation at room temperature for 45 min. With the solvent group (DMSO) as the negative control and the buffer group (without RET enzyme) as the blank control, the relative inhibitory activity percentages (i.e., inhibition rates) of different concentrations of the compounds were computed as per the following formula:
(§1) Relative inhibitory activity percentage=1−(compound group of different concentrations−blank control)/(negative control−blank control)*100%
(§2) The relative inhibitory activity percentages of different concentrations of the compounds were plotted with respect to the compound concentrations, and the curve was fitted according to a four-parameter model to compute the IC50 value as per the following formula:
(§3) y=min+(max−min)/(1+(x/IC50)^(−Hillslope))
(§4) where y is the relative inhibitory activity percentage, max is the maximum value of the fitted curve, min is the minimum value of the fitted curve, x is the logarithmic concentration of the compound, and Hillslope is the slope of the curve.

The target of another assay is VEGFR2 (Homo sapiens, UniProt P35968). The assay can be described thus: VEGFR2 inhibition experiment (HTRF KinEASE-TK kit). Particulars: read-out: Inhibition rate on VEGFR2; for inhibition at 0.03 µM: 30 nM. The class given is biochemical. On the procedure:
Experimental method: According to the instructions of the HTRF KinEASE-TK kit (Cisbio), the compounds of the present disclosure were tested for their inhibitory effects on the VEGFR2 enzyme activity. After pre-incubation of the VEGFR2 enzyme and different concentrations of test compounds at room temperature for 30 min, a substrate and adenosine triphosphate (ATP) were added to initiate the reaction. After incubation at room temperature for 40 min, TK antibody-cryptate and streptavidin-XL665 were added, and the test was performed after incubation at room temperature for 45 min. With the solvent group (DMSO) as the negative control and the buffer group (without VEGFR2 enzyme) as the blank control, the relative inhibitory activity percentages (i.e., inhibition rates) of different concentrations of the compounds were computed as per the following formula:
as §1, §2, §3, §4

Setting [1] is: 10 nM (Table 2), read-out: Inhibition rate on RET-V804M.

Sequence of VEGFR2 (P35968 20-1356, species assumed): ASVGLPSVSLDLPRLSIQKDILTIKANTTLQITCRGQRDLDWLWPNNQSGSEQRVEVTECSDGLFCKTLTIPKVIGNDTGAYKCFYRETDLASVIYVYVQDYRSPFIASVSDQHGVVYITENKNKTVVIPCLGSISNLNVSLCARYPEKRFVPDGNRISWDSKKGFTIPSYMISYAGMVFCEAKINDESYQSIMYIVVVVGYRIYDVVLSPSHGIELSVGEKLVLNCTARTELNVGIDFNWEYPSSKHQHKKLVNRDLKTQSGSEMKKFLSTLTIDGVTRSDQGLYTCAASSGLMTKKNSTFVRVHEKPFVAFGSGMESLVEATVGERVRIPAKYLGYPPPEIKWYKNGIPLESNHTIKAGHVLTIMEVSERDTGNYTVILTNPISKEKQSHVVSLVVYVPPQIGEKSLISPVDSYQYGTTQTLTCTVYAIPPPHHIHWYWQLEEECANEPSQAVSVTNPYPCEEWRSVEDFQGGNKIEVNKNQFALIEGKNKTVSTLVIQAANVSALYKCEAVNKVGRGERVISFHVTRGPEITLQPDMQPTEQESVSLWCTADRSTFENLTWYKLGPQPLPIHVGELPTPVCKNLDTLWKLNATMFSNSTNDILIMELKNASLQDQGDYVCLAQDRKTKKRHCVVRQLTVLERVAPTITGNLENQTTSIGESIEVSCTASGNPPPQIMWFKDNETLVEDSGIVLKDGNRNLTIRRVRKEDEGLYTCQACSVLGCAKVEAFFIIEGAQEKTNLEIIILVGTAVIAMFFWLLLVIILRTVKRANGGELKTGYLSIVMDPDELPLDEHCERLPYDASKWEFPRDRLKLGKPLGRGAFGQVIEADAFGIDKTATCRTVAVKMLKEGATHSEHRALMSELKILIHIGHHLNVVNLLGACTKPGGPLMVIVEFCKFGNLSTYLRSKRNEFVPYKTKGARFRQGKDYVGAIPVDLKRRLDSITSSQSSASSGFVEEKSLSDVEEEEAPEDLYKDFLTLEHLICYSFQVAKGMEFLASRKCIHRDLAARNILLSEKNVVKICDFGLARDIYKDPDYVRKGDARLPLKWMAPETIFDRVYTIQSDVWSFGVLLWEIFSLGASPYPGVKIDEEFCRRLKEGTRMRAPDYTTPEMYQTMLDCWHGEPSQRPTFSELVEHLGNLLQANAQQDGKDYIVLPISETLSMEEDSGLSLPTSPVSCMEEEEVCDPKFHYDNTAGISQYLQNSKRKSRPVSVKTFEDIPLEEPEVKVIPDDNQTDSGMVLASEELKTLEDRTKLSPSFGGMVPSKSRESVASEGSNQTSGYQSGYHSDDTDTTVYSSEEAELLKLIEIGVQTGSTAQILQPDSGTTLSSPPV
Sequence of RET-V804M (P07949 29-1114 V804M): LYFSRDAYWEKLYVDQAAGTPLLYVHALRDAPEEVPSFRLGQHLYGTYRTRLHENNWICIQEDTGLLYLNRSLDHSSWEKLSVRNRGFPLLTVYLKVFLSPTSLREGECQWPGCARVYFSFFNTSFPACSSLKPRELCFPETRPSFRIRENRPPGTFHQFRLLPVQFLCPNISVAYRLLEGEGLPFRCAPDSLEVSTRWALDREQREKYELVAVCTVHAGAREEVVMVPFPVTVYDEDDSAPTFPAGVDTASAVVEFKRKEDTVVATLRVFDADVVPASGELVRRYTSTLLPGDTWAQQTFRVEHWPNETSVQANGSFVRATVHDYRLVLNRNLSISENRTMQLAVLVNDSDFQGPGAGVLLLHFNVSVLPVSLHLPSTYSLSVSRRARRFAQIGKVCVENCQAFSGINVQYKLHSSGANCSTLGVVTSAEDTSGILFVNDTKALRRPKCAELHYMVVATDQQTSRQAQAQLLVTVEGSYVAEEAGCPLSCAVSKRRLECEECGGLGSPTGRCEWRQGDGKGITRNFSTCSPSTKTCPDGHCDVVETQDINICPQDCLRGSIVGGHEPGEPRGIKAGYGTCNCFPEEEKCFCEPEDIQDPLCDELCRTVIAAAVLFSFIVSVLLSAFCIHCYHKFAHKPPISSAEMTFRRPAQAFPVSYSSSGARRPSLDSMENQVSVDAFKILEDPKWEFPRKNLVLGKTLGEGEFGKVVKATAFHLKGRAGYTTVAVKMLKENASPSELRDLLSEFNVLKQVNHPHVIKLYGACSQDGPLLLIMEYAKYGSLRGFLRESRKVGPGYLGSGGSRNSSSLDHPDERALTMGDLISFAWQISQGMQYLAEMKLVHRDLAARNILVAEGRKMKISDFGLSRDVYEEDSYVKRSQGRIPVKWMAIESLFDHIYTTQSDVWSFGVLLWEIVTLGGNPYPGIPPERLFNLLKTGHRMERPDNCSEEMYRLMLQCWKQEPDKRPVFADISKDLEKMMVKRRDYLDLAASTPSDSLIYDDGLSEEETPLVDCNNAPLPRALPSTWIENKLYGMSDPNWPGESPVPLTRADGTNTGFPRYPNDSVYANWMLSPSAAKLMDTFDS

Take `Cc1cnn(-c2ccc(CN3C4CC3CN(c3ccc(-c5nc(C)cc(Nc6cc(C)[nH]n6)n5)cn3)C4)cn2)c1` [Compound 62, 6-methyl-2-(6-(6-((6-(4-methyl-1H-pyrazol-1-yl)pyridin-3-yl)methyl)-3,6-diazabicyclo[3.1.1]heptan-3-yl)pyridin-3-yl)-N-(5-methyl-1H-pyrazol-3-yl)pyrimidin-4-amine]: the IC50 at RET-V804M turned out to be 4.53 ± 1.23 nM. In addition, the inhibition at 0.1 µM on VEGFR2 (100 nM) was 62%.
`Cc1cc(Nc2cc(C)[nH]n2)nc(-c2ccc(N3CC4CC(C3)N4Cc3ccc(-n4ccc(F)n4)nc3)nc2)n1` [Compound 63, 2-(6-(6-((6-(3-fluoro-1H-pyrazol-1-yl)pyridin-3-yl)methyl)-3,6-diazabicyclo[3.1.1]heptan-3-yl)pyridin-3-yl)-6-methyl-N-(5-methyl-1H-pyrazol-3-yl)pyrimidin-4-amine]: on RET-V804M (setting [1]), the inhibition at 0.01 µM turned out to be 65%. Moreover, the inhibition at 0.1 µM at VEGFR2 (100 nM) was found to be 38%.
On the same counts, the results for `Cc1cc(Nc2cc(C)[nH]n2)nc(-c2ccc(N3CC4CC(C3)N4Cc3ccc(-n4cnc(F)c4)nc3)nc2)n1` [Compound 64, 2-(6-(6-((6-(4-fluoro-1H-imidazol-1-yl)pyridin-3-yl)methyl)-3,6-diazabicyclo[3.1.1]heptan-3-yl)pyridin-3-yl)-6-methyl-N-(5-methyl-1H-pyrazol-3-yl)pyrimidin-4-amine] are 79% and 38%.
For the compound `Cc1cc(Nc2cc(C)[nH]n2)nc(-c2ccc(N3CC4CC(C3)N4Cc3ccc(F)cn3)nc2)n1` [Compound 70, 2-(6-(6-((5-fluoropyridin-2-yl)methyl)-3,6-diazabicyclo[3.1.1]heptan-3-yl)pyridin-3-yl)-6-methyl-N-(5-methyl-1H-pyrazol-3-yl)pyrimidin-4-amine], the IC50 on RET-V804M amounted to 41.4 ± 3.73 nM. Besides, the inhibition at 0.1 µM on VEGFR2 (100 nM) was 14%.
With `Cc1ccc(CN2C3CC2CN(c2ccc(-c4nc(C)cc(Nc5cc(C)[nH]n5)n4)cn2)C3)cc1` [Compound 80, 6-methyl-N-(5-methyl-1H-pyrazol-3-yl)-2-(6-(6-(4-methylbenzyl)-3,6-diazabicyclo[3.1.1]heptan-3-yl)pyridin-3-yl)pyrimidin-4-amine], at RET-V804M (read-out: Inhibition rate on RET-V804M), the inhibition at 0.01 µM amounted to 51%. The inhibition at 0.1 µM at VEGFR2 is -10%.
Regarding `Cc1cc(Nc2cc(C)[nH]n2)nc(-c2ccc(N3CC4CC(C3)N4Cc3ccc(Cl)cc3)nc2)n1` [Compound 82, 2-(6-(6-(4-chlorobenzyl)-3,6-diazabicyclo[3.1.1]heptan-3-yl)pyridin-3-yl)-6-methyl-N-(5-methyl-1H-pyrazol-3-yl)pyrimidin-4-amine], the inhibition at 0.01 µM on RET-V804M (setting [1]) worked out at 43%. Besides, on VEGFR2 (100 nM), the inhibition at 0.1 µM is 15%.
Regarding `Cc1cc(Nc2cc(C)[nH]n2)nc(-c2ccc(N3CC4CC(C3)N4Cc3ccc(F)cc3)nc2)n1` [Compound 83, 2-(6-(6-(4-fluorobenzyl)-3,6-diazabicyclo[3.1.1]heptan-3-yl)pyridin-3-yl)-6-methyl-N-(5-methyl-1H-pyrazol-3-yl)pyrimidin-4-amine], the inhibition at 0.01 µM at RET-V804M (setting [1]) came to 56%. The inhibition at 0.1 µM at VEGFR2 (100 nM) is 18%.
For `Cc1cc(Nc2cc(C)[nH]n2)nc(-c2ccc(N3CC4CC(C3)N4Cc3ccc(-n4cccn4)cc3)nc2)n1` [Compound 86, 2-(6-(6-(4-(1H-pyrazol-1-yl)benzyl)-3,6-diazabicyclo[3.1.1]heptan-3-yl)pyridin-3-yl)-6-methyl-N-(5-methyl-1H-pyrazol-3-yl)pyrimidin-4-amine] the same measures were 64% and 52%.
On the same counts, the results for `Cc1cnn(-c2ccc(CN3C4CC3CN(c3ccc(-c5nc(C)cc(Nc6cc(C)[nH]n6)n5)cn3)C4)cc2)c1` [Compound 88, 6-methyl-2-(6-(6-(4-(4-methyl-1H-pyrazol-1-yl)benzyl)-3,6-diazabicyclo[3.1.1]heptan-3-yl)pyridin-3-yl)-N-(5-methyl-1H-pyrazol-3-yl)pyrimidin-4-amine] are 62% and 32%.
On the same counts, the results for `Cc1cc(Nc2cc(C)[nH]n2)nc(-c2ccc(N3CC4CC(C3)N4Cc3ccc(-n4ccc(F)n4)cc3)nc2)n1` [Compound 89, 2-(6-(6-(4-(3-fluoro-1H-pyrazol-1-yl)benzyl)-3,6-diazabicyclo[3.1.1]heptan-3-yl)pyridin-3-yl)-6-methyl-N-(5-methyl-1H-pyrazol-3-yl)pyrimidin-4-amine] are 70% and 16%.
In the case of `Cc1cc(Nc2cc(C)[nH]n2)nc(-c2ccc(N3CC4CC(C3)N4Cc3ccc(-n4cc(F)cn4)cc3)nc2)n1` [Compound 91, 2-(6-(6-(4-(4-fluoro-1H-pyrazol-1-yl)benzyl)-3,6-diazabicyclo[3.1.1]heptan-3-yl)pyridin-3-yl)-6-methyl-N-(5-methyl-1H-pyrazol-3-yl)pyrimidin-4-amine], the inhibition at 0.01 µM on RET-V804M (setting [1]) is 70%. In addition, at VEGFR2 (100 nM), the inhibition at 0.1 µM was found to be 26%.
Regarding `COc1ccc(F)c(CN2C3CC2CN(c2ccc(-c4nc(C)cc(Nc5cc(C)[nH]n5)n4)cn2)C3)c1` [Compound 96, 2-(6-(6-(2-fluoro-5-methoxybenzyl)-3,6-diazabicyclo[3.1.1]heptan-3-yl)pyridin-3-yl)-6-methyl-N-(5-methyl-1H-pyrazol-3-yl)pyrimidin-4-amine], the inhibition at 0.1 µM on RET-V804M (100 nM (Table 2), read-out: Inhibition rate on RET-V804M) is 84%; on VEGFR2 (100 nM), 4%.
`Cc1ccc(OC2CCN(c3ccc(-c4nc(C)cc(Nc5cc(C)[nH]n5)n4)cn3)CC2)cn1` [Compound 119, 6-methyl-N-(5-methyl-1H-pyrazol-3-yl)-2-(6-(4-((6-methylpyridin-3-yl)oxy)piperidin-1-yl)pyridin-3-yl)pyrimidin-4-amine]: the IC50 at RET-V804M is 14.2 ± 1.27 nM. The inhibition at 0.1 µM on VEGFR2 (100 nM) is -7%.
On the same counts, the results for `Cc1cc(Nc2cc(C)[nH]n2)nc(-c2ccc(N3CC4CC(C3)N4Cc3ccc(-n4cc(C)c(C)n4)nc3)nc2)n1` [Compound 121, 2-(6-(6-((6-(3,4-dimethyl-1H-pyrazol-1-yl)pyridin-3-yl)methyl)-3,6-diazabicyclo[3.1.1]heptan-3-yl)pyridin-3-yl)-6-methyl-N-(5-methyl-1H-pyrazol-3-yl)pyrimidin-4-amine] are 6.22 ± 1.39 nM and 37%.
In the case of `Cc1cc(Nc2cc(C)[nH]n2)nc(-c2ccc(N3CC4CC(C3)N4Cc3ccc(-c4ccc[nH]4)nc3)nc2)n1` [Compound 123, 2-(6-(6-((6-(1H-pyrrol-2-yl)pyridin-3-yl)methyl)-3,6-diazabicyclo[3.1.1]heptan-3-yl)pyridin-3-yl)-6-methyl-N-(5-methyl-1H-pyrazol-3-yl)pyrimidin-4-amine], on RET-V804M, the IC50 amounted to 1.88 ± 0.11 nM. Moreover, at VEGFR2, the inhibition at 0.03 µM is 56%.
As to `Cc1cc(Nc2cc(C)[nH]n2)nc(-c2ccc(N3CC4CC(C3)N4Cc3ccc(-n4cc(F)c(C5CC5)n4)nc3)nc2)n1` [Compound 124, 2-(6-(6-((6-(3-cyclopropyl-4-fluoro-1H-pyrazol-1-yl)pyridin-3-yl)methyl)-3,6-diazabicyclo[3.1.1]heptan-3-yl)pyridin-3-yl)-6-methyl-N-(5-methyl-1H-pyrazol-3-yl)pyrimidin-4-amine], the IC50 at RET-V804M was 10.7 ± 0.98 nM. The inhibition at 0.03 µM on VEGFR2 came out at 41%.
On to `Cc1cc(Nc2cc(C)[nH]n2)nc(-c2ccc(N3CC4CC(C3)N4Cc3ccc(-c4cccn4C)nc3)nc2)n1` [Compound 128, 6-methyl-N-(5-methyl-1H-pyrazol-3-yl)-2-(6-(6-((6-(1-methyl-1H-pyrrol-2-yl)pyridin-3-yl)methyl)-3,6-diazabicyclo[3.1.1]heptan-3-yl)pyridin-3-yl)pyrimidin-4-amine], for which, on RET-V804M (setting [1]), the inhibition at 0.01 µM worked out at 48%. Also, at VEGFR2 (100 nM), the inhibition at 0.1 µM was 20%.
Consider `Cc1cc(Nc2cc(C)[nH]n2)nc(-c2ccc(N3CC4CC(C3)N4Cc3ccc(-c4cscn4)nc3)nc2)n1` [Compound 129, 6-methyl-N-(5-methyl-1H-pyrazol-3-yl)-2-(6-(6-((6-(thiazol-4-yl)pyridin-3-yl)methyl)-3,6-diazabicyclo[3.1.1]heptan-3-yl)pyridin-3-yl)pyrimidin-4-amine], for which the inhibition at 0.01 µM on RET-V804M (setting [1]) came to 84%. Moreover, the inhibition at 0.03 µM at VEGFR2 came out at 52%.
For `Cc1cc(Nc2cc(C)[nH]n2)nc(-c2ccc(N3CC4CC(C3)N4Cc3ccc(-c4ccc(F)[nH]4)nc3)nc2)n1` [Compound 131, 2-(6-(6-((6-(5-fluoro-1H-pyrrol-2-yl)pyridin-3-yl)methyl)-3,6-diazabicyclo[3.1.1]heptan-3-yl)pyridin-3-yl)-6-methyl-N-(5-methyl-1H-pyrazol-3-yl)pyrimidin-4-amine] the same measures were 72% and 50%.
